Experimental data published in paper PMC9297786 (Molecular Oncology, 2022).
Counter-ions that a name gives are not always drawn.

System: K562
Assay: cells
Parameters: MTT cell growth inhibition assay, absorbance at 490 nm
Conditions: 48 h; inhibitor
Procedure: Exponential‐phase cells were seeded into 96‐well plates at a density of 2 × 10^4 cells per well in complete medium. After 24 h, cells were treated with drugs at indicated concentrations and incubated for 48 h. Fresh medium containing 20 μL MTT solution (5 mg·mL^−1) was then added to each well. Then plates were incubated for another 4 h at 37 °C. After removing the medium, 150 μL DMSO was added to each well. The absorbance was recorded at 490 nm in the microplate reader and the inhibition ratio (I%) was calculated. The cell growth assay was conducted as described previously. K562 cells were cultured in IMDM containing 10% fetal bovine serum, 100 U·mL^−1 penicillin and 100 U·mL^−1 streptomycin. […] MEG‐01 cells were cultured in DMEM containing 10% fetal bovine serum, 100 U·mL^−1 penicillin and 100 U·mL^−1 streptomycin. […] Cells were grown at 37 °C in a humidified atmosphere with 5% CO2. […] To identify an EPHB4‐specific inhibitor with a potential of rapid translation into clinic, a pool of clinically approved TKIs and compounds was screened in this study (Fig. S2 and Table S4).

| SMILES | Inhibition rate (%, 10 μM) [%] |
| --- | --- |
| CN1CC[C@]23c4c5ccc(O)c4O[C@H]2[C@@H](O)C=C[C@H]3[C@H]1C5 [morphine] | -46.72 |

Same assay, conditions: Homo sapiens, K562, 48 h, read-out: Inhibition rate (%, 10 μM)

| SMILES | inhibition at 10 µM [%] |
| --- | --- |
| Nc1nc2c(ncn2COCCO)c(=O)[nH]1 [acyclovir] | -42.6 |
| CN(C)C/C=C/C(=O)Nc1cc2c(Nc3ccc(F)c(Cl)c3)ncnc2cc1O[C@H]1CCOC1 [afatinib] | 78.6 |
| COc1cc2nc(N(C)CCCNC(=O)C3CCCO3)nc(N)c2cc1OC (stereo not shown) [alfuzosin] | -37.2 |
| NC12CC3CC(CC(C3)C1)C2 [amantadine] | -58.8 |
| CCOC(=O)C1=C(COCCN)NC(C)=C(C(=O)OC)C1c1ccccc1Cl (stereo not shown) [amlodipine] | -59.8 |
| COc1ccc(C[C@H]2COC(=O)[C@@H]2Cc2ccc(O[C@@H]3O[C@H](CO)[C@@H](O)[C@H](O)[C@H]3O)c(OC)c2)cc1OC [arctiin] | -62.6 |
| C=C1C(=O)O[C@@]23[C@H]1CC[C@@H](C)[C@@H]2CC[C@@]1(C)O[C@@H]31 [arteannuin b] | -8.46 |
| C[C@@H]1CC[C@H]2[C@@H](C)C(=O)O[C@@H]3O[C@@]4(C)CC[C@@H]1[C@]32OO4 [artemisinin] | -161 |
| CN1CCCC(n2nc(Cc3ccc(Cl)cc3)c3ccccc3c2=O)CC1 (stereo not shown) [azelastine] | -74.3 |
| O=C(O)[C@H]1O[C@@H](Oc2cc3oc(-c4ccccc4)cc(=O)c3c(O)c2O)[C@H](O)[C@@H](O)[C@@H]1O [baicalin] | -31 |
| CN(C)C(=O)Oc1cc(OC(=O)N(C)C)cc(C(O)CNC(C)(C)C)c1 (stereo not shown) [bambuterol] | -43.1 |
| COc1ccc2cc3[n+](cc2c1OC)CCc1cc2c(cc1-3)OCO2 [berberine] | 49.8 |
| COC(=O)CCc1ccc(OCC(O)CNC(C)C)cc1 (stereo not shown) [brevibloc] | -12.6 |
| CC(NC(C)(C)C)C(=O)c1cccc(Cl)c1 (stereo not shown) [bupropion] | -48.5 |
| COc1cc2nccc(Oc3ccc(NC(=O)C4(C(=O)Nc5ccc(F)cc5)CC4)cc3)c2cc1OC [cabozantinib] | 90.1 |
| CCOc1nc2cccc(C(=O)O)c2n1Cc1ccc(-c2ccccc2-c2nnn[nH]2)cc1 [candesartan] | -49.7 |
| CN(C)CCC(c1ccc(Cl)cc1)c1ccccn1 (stereo not shown) [chlorpheniramine] | -42.9 |
| O=C(O)c1cn(C2CC2)c2cc(N3CCNCC3)c(F)cc2c1=O [ciprofloxacin] | -3.17 |
| CC(C)NCC(O)c1ccccc1Cl (stereo not shown) [clorprenaline] | -36.2 |
| COc1ccc2c3c1O[C@H]1[C@@H](O)C=C[C@H]4[C@@H](C2)N(C)CC[C@@]341 [codeine] | -64 |
| C[C@H]1COC2=C1C(=O)C(=O)c1c2ccc2c1CCCC2(C)C [cryptotanshinone] | -72.9 |
| C[C@@H]1C(=O)O[C@H](C)[C@H]1C[C@@H](O)[C@](C)(O)[C@H]1CC[C@@]2(O)C3=CC(=O)[C@@H]4C[C@@H](O)[C@@H](O)C[C@]4(C)[C@H]3CC[C@]12C [cyasterone] | -50.6 |
| CN1CCC(=C2c3ccccc3C=Cc3ccccc32)CC1 [cyproheptadine] | -38.4 |
| COc1ccc2c(c1OC)CN1CCc3cc4c(cc3C1=C2)OCO4 [dihydroberberine] | 30.6 |

| SMILES | inhibition at 10 µM [%] |
| --- | --- |
| CN(C)CCOC(c1ccccc1)c1ccccc1 [diphenhydramine] | -37.9 |
| O=c1[nH]c2ccccc2n1CCCN1CCC(n2c(=O)[nH]c3cc(Cl)ccc32)CC1 [domperidone] | -38.6 |
| NCCc1ccc(O)c(O)c1 [dopamine] | -62.3 |
| COc1cc2nc(N3CCN(C(=O)C4COc5ccccc5O4)CC3)nc(N)c2cc1OC (stereo not shown) [doxazosin] | -84.5 |
| CN(C)CCC=C1c2ccccc2COc2ccccc21 [doxepin] | -54.9 |
| Cc1cc(O)c2c(c1)C(=O)c1cc(O)cc(O)c1C2=O [emodin] | 6.9 |
| CN[C@@H](C)[C@H](O)c1ccccc1 [ephedrine hydrochloride] | -29 |
| C#Cc1cccc(Nc2ncnc3cc(OCCOC)c(OCCOC)cc23)c1 [erlotinib] | 3.52 |
| CC(Cc1ccc(O)cc1)NCC(O)c1cc(O)cc(O)c1 (stereo not shown) [fenoterol] | -62 |
| CC(=O)Oc1ccc2c3c1O[C@H]1[C@@H](OC(C)=O)C=C[C@H]4[C@@H](C2)N(C)CC[C@@]341 [heroin] | -30.2 |
| COC(=O)C[C@](O)(CCCC(C)(C)O)C(=O)O[C@@H]1C(OC)=C[C@]23CCCN2CCc2cc4c(cc2[C@H]13)OCO4 [homoharringtonine] | 68.7 |
| CC(C)=CCOc1c2occc2cc2ccc(=O)oc12 [imperatorin] | -7.73 |
| CC(C)(C)NC(=O)[C@@H]1CN(Cc2cccnc2)CCN1C[C@@H](O)C[C@@H](Cc1ccccc1)C(=O)N[C@H]1c2ccccc2C[C@H]1O [indinavir] | -52.2 |
| CCCCC1=NC2(CCCC2)C(=O)N1Cc1ccc(-c2ccccc2-c2nnn[nH]2)cc1 [irbesartan] | -56.4 |
| CC(C)=CCOc1c2ccoc2cc2oc(=O)ccc12 [isoimperatorin] | -85.9 |
| O=C(/C=C/c1ccc(O)cc1)c1ccc(O)cc1O [isoliquiritigenin] | -123 |
| CS(=O)(=O)CCNCc1ccc(-c2ccc3ncnc(Nc4ccc(OCc5cccc(F)c5)c(Cl)c4)c3c2)o1 [lapatinib] | 98.8 |
| CCN(CC)CC(=O)Nc1c(C)cccc1C [lidocaine] | -38.5 |
| CCCCc1nc(Cl)c(CO)n1Cc1ccc(-c2ccccc2-c2nnn[nH]2)cc1 [losartan] | -72.9 |
| Cc1nnc(C(C)C)n1[C@@H]1C[C@H]2CC[C@@H](C1)N2CC[C@H](NC(=O)C1CCC(F)(F)CC1)c1ccccc1 [maraviroc] | -56.3 |
| CC(=O)Oc1c(C)cc(OCC(O)CNC(C)C)c(C)c1C (stereo not shown) [metipranolol] | -26.8 |
| CN(c1nccc(=O)[nH]1)C1CCN(c2nc3ccccc3n2Cc2ccc(F)cc2)CC1 [mizolastine] | -89.1 |
| COc1ccc([C@@H]2CC(=O)c3c(O)cc(O[C@@H]4O[C@H](CO)[C@@H](O)[C@H](O)[C@H]4O[C@@H]4O[C@@H](C)[C@H](O)[C@@H](O)[C@H]4O)cc3O2)cc1O [neohesperidin] | -49.4 |
| Cc1ccnc2c1NC(=O)c1cccnc1N2C1CC1 [nevirapine] | -47 |

| SMILES | inhibition at 10 µM [%] |
| --- | --- |
| COC(=O)C1=C(C)NC(C)=C(C(=O)OCCN(C)Cc2ccccc2)C1c1cccc([N+](=O)[O-])c1 (stereo not shown) [nicardipine] | -74.2 |
| COC(=O)C1=C(C)NC(C)=C(C(=O)OC)C1c1ccccc1[N+](=O)[O-] [nifedipine] | 6.88 |
| Cc1cn(-c2cc(NC(=O)c3ccc(C)c(Nc4nccc(-c5cccnc5)n4)c3)cc(C(F)(F)F)c2)cn1 [nilotinib] | 71.7 |
| COCCOC(=O)C1=C(C)NC(C)=C(C(=O)OC(C)C)C1c1cccc([N+](=O)[O-])c1 (stereo not shown) [nimodipine] | -69.7 |
| CCOC(=O)C1=C(C)NC(C)=C(C(=O)OC)C1c1cccc([N+](=O)[O-])c1 (stereo not shown) [nitrendipine] | -26.4 |
| Cc1cc2c(s1)Nc1ccccc1N=C2N1CCN(C)CC1 [olanzapine] | -53.5 |
| CCCc1nc(C(C)(C)O)c(C(=O)O)n1Cc1ccc(-c2ccccc2-c2nnn[nH]2)cc1 [olmesartan] | -34.8 |
| CCOC(=O)C1=C[C@@H](OC(CC)CC)[C@H](NC(C)=O)[C@@H](N)C1 [oseltamivir] | -47.6 |
| COc1ccc2ccc(=O)oc2c1CC=C(C)C [osthole] | -21.2 |
| Cc1ccc(Nc2nccc(N(C)c3ccc4c(C)n(C)nc4c3)n2)cc1S(N)(=O)=O [pazopanib] | 76.2 |
| CCOC(=O)C1(c2ccccc2)CCN(C)CC1 [pethidine] | -43.7 |
| Cc1ccc(N(CC2=NCCN2)c2cccc(O)c2)cc1 [phentolamine] | -43.1 |
| CC(=O)Nc1ccc(OCC(O)CNC(C)C)cc1 (stereo not shown) [practolol] | -62.1 |
| CC(C)NC(=N)NC(=N)Nc1ccc(Cl)cc1 [proguanil] | -7.92 |
| O=c1ccc2cc3ccoc3cc2o1 [psoralen] | -51.5 |
| O=c1c(O)c(-c2ccc(O)c(O)c2)oc2cc(O)cc(O)c12 [quercetin] | -58.4 |
| OCCOCCN1CCN(C2=Nc3ccccc3Sc3ccccc32)CC1 [quetiapine] | -46.2 |
| CNC(=O)c1cc(Oc2ccc(NC(=O)Nc3ccc(Cl)c(C(F)(F)F)c3)c(F)c2)ccn1 [regorafenib] | 8.49 |
| CC[C@H]1CN2CC[C@]3(C(=O)Nc4ccccc43)[C@@H]2C[C@@H]1/C(=C\OC)C(=O)OC [rhynchophylline] | -47.3 |
| CC(C)(C)NCC(O)c1ccc(O)c(CO)c1 (stereo not shown) [salbutamol] | -65.8 |
| OCc1cc(C(O)CNCCCCCCOCCCCc2ccccc2)ccc1O (stereo not shown) [salmeterol] | -72.7 |
| O=C(/C=C/c1ccc(O)c(O)c1/C=C/c1ccc(O)c(O)c1)O[C@H](Cc1ccc(O)c(O)c1)C(=O)O [salvianolic acid A] | -32.3 |
| O=C(/C=C/c1ccc(O)c2c1[C@H](C(=O)O[C@H](Cc1ccc(O)c(O)c1)C(=O)O)[C@@H](c1ccc(O)c(O)c1)O2)O[C@H](Cc1ccc(O)c(O)c1)C(=O)O [salvianolic acid B] | -40.8 |

Same assay, conditions: Homo sapiens, K562, 48 h; read-out: Inhibition rate (%, 10 μM)

| SMILES | inhibition at 10 µM [%] |
| --- | --- |
| COc1cc2c(cc1OC)[C@@]13CCN4CC5=CCO[C@H]6CC(=O)N2[C@H]1[C@H]6[C@H]5C[C@H]43 [brucine] | -63.5 |
